Our source for the IC50 values is patent US20160046616A1, “NRF2 SMALL MOLECULE INHIBITORS FOR CANCER THERAPY” (THE JOHNS HOPKINS UNIVERSITY, priority 2013, published 2016).

The subject of assay [1] is A549 NRF2-ARE-Fluc stable cell line. Kind of assay: A549 Nrf2 assay: NRF2-ARE firefly luciferase reporter gene assay. It counts as cell-based. Conditions: Homo sapiens, read-out: Potency of inhibition, A549. The gist of the method: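 A549 cells (Keap1 loss-of-function, constitutive NRF2) stably carrying ARE-driven firefly luciferase; compound treatment 18–24 h at 37 °C, 0.46% DMSO final.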
(In general: Reporter assays use an easily measured gene product as a stand-in for the process of interest.)

Assay [2] relates to H1437 NRF2-ARE-Fluc stable cell line. Kind of assay: H1437 Nrf2 assay: NRF2-ARE firefly luciferase reporter gene assay. It counts as cell-based. Conditions: read-out: Potency of inhibition, H1437.
Where [3] appears, read: Homo sapiens, NCI-H1437, H1437 NRF2-ARE-Fluc stable cell line.

Like-named read-outs stand apart in the source and are kept apart here. A value given as a limit tells only on which side of the number the result lay.

Regarding `O=C(Nc1ncc(Cc2cccc(F)c2)s1)c1ccn(-c2ccccc2)n1` [Compound 218], the IC50 is 5 to 25 µM in assay [1] and below 5 µM in assay [2] (setting [3]).
As for `O=C(Nc1ncc(Cc2ccc(C(F)(F)F)cc2)s1)c1ccc(-c2ccc([N+](=O)[O-])cc2)o1` [Compound 22], the IC50 in assay [1] and in assay [2] (setting [3]) was 5 to 25 µM in each case.
Turning to `Cc1ccccc1C(=O)N1CCc2cc(-c3nc(NC(=O)CCc4ccccc4)sc3C)ccc21` [Compound 210], the IC50 was below 5 µM in assay [1] and 5 to 25 µM in assay [2] (setting [3]).
In the same order, the values of `O=C(Nc1ncc(Cc2ccc(C(F)(F)F)cc2)s1)c1cccc(-c2ccccc2)c1` [Compound 59] are 5 to 25 µM and above 25 µM.
Turning to `O=C(Nc1cccc(Nc2ccccc2)c1)c1ccc(-c2cccc([N+](=O)[O-])c2)o1` [Compound 137], the results for the IC50 in assay [1] and in assay [2] (setting [3]) were below 5 µM and above 25 µM, respectively.
`Cc1ccccc1C(=O)N1CCc2cc(-c3nc(NC(=O)Cc4cccc(OCCOCCOCCN)c4)sc3C)ccc21` [Compound 238, 2-(3-(2-(2-(2-aminoethoxy)ethoxy)ethoxy)phenyl)-N-(5-methyl-4-(1-(2-methylbenzoyl)indolin-5-yl)thiazol-2-yl)acetamide]: the IC50 in assay [1] and in assay [2] (setting [3]) was 5 to 25 µM each time.
Take `CC(=O)Nc1nc(-c2ccc3c(c2)CCN3C(=O)c2ccccc2C)c(C)s1` [Compound 11]: the IC50 was 5 to 25 µM in assay [1] and below 5 µM in assay [2] (setting [3]).
The like results for `Cc1cccnc1C(=O)N1CCc2cc(-c3nc(NC(=O)Cc4ccc5c(c4)OCO5)sc3C)ccc21` [Compound 141] were, in that order, below 5 µM and above 25 µM.
The like results for `CNc1ccc(-c2cccc(NC(=O)Cc3ccccc3)n2)cc1` [Compound 64, N-(6-(4-(methylamino)phenyl)pyridin-2-yl)-2-phenylacetamide] were, in that order, 5 to 25 µM and above 25 µM.
Regarding `O=C(Nc1ncc(Cc2ccc(C(F)(F)F)cc2)s1)c1ncc(-c2ccccc2)[nH]1` [Compound 151], the IC50 in assay [1] and in assay [2] (setting [3]) was above 25 µM in each case.
In the case of `NC(=O)c1ccc(N2CCN(S(=O)(=O)c3ccccc3)CC2)c([N+](=O)[O-])c1` [Compound 39], the IC50 in assay [1] was below 5 µM; in assay [2] (setting [3]), 5 to 25 µM.
As to `O=C(Nc1ccc(S(=O)(=O)N2CCC(F)(F)CC2)cc1)c1ccc(CN2CCc3ccccc3C2)cc1` [compound 188], the IC50 in assay [1] and in assay [2] (setting [3]) was below 5 µM throughout.
For the molecule `Cc1ccccc1S(=O)(=O)N1CCc2cc(-c3nc(NC(=O)Cc4cccc(F)c4)sc3C)ccc21` [Compound 124], the IC50 in assay [1] and in assay [2] (H1437 NRF2-ARE-Fluc stable cell line) was below 5 µM in each case.
For the molecule `Cc1ccccc1C(=O)N1CCc2cc(-c3nc(NC(=O)CC4CCN(C)CC4)sc3C)ccc21` [Compound 75], the IC50 in assay [1] and in assay [2] (setting [3]) was 5 to 25 µM throughout.
As to `CC1(C)CC2CC(C)(CN2S(=O)(=O)c2ccc(C(=O)Nc3ccc(Cl)cc3)cc2)C1` (stereo not drawn) [compound 53], the IC50 in assay [1] is below 5 µM; in assay [2] (setting [3]), 5 to 25 µM.
Take `O=C(Nc1ccc(CN2CCOCC2)cc1)c1ccc(CN2CCc3ccccc3C2)cc1` [compound 163]: the IC50 is below 5 µM in assay [1] and above 25 µM in assay [2] (setting [3]).
`CN(C)[S+](=O)([O-])c1ccc(NC(=O)c2ccc(CN3CCc4ccccc4C3)cc2)cc1` [compound 148]: the IC50 in assay [1] is below 5 µM; in assay [2] (setting [3]), above 25 µM.
`Cc1ccccc1C(=O)N1CCc2cc(-c3nc(NC(=O)Cc4ccc(F)c(F)c4)sc3C)ccc21` [Compound 12]: the IC50 in assay [1] and in assay [2] (setting [3]) was below 5 µM in each case.
For `Cc1ccncc1C(=O)N1CCc2cc(-c3nc(NC(=O)Cc4ccc5c(c4)OCO5)sc3C)ccc21` [Compound 140], the IC50 in assay [1] and in assay [2] (setting [3]) was below 5 µM throughout.
Consider `O=C(Nc1ncc(Cc2ccccc2F)s1)c1ccn(-c2ccccc2)n1` [Compound 215], for which the IC50 in assay [1] and in assay [2] (setting [3]) was below 5 µM each time.
As for `COc1ccccc1C(=O)N1CCc2cc(-c3nc(NC(=O)Cc4ccc5c(c4)OCO5)sc3C)ccc21` [Compound 120], the IC50 in assay [1] was below 5 µM; in assay [2] (setting [3]) it was above 25 µM.
In the same order, the values of `Cc1ccccc1C(=O)N1CCc2cc(-c3cccc(NC(=O)Cc4ccc5c(c4)OCO5)c3)ccc21` [Compound 31] are 5 to 25 µM and above 25 µM.
As for `CCc1ccccc1C(=O)N1CCc2cc(-c3nc(NC(=O)Cc4ccc5c(c4)OCO5)sc3C)ccc21` [Compound 113], the IC50 in assay [1] was below 5 µM; in assay [2] (setting [3]), above 25 µM.
Regarding `Cc1ccc(NC(=O)c2ccc(S(=O)(=O)N(C)c3ccccc3)cc2)cc1S(=O)(=O)N1CCOCC1` [Compound 46], the IC50 in assay [1] was below 5 µM; in assay [2] (setting [3]), 5 to 25 µM.
Turning to `Cc1ccccc1C(=O)N1CCc2cc(-c3cccc(N4CCOCC4)n3)ccc21` [Compound 65], the IC50 in assay [1] and in assay [2] (setting [3]) was 5 to 25 µM throughout.
Turning to `Cc1ncoc1C(=O)N1CCc2cc(-c3nc(NC(=O)Cc4ccc5c(c4)OCO5)sc3C)ccc21` [Compound 181], the results for the IC50 in assay [1] and in assay [2] (setting [3]) were below 5 µM and above 25 µM, respectively.
With `Cc1sc(NC(=O)Cc2ccc3c(c2)OCO3)nc1-c1ccc2c(c1)CCN2C(=O)c1ccccc1F` [Compound 115], the IC50 in assay [1] and in assay [2] (setting [3]) was below 5 µM throughout.
With `Cc1ccccc1C(=O)N1CCc2cc(-c3nc(NC(=O)Cc4cccc(OCCOCCOCCNC(=O)OC(C)(C)C)c4)sc3C)ccc21` [Compound 237, tert-butyl (2-(2-(2-(3-(2-((5-methyl-4-(1-(2-methylbenzoyl)indolin-5-yl)thiazol-2-yl)amino)-2-oxoethyl)phenoxy)ethoxy)ethoxy)ethyl)carbamate], the IC50 in assay [1] and in assay [2] (setting [3]) was below 5 µM throughout.
`CC(C)(C)OC(=O)N1CCN(S(=O)(=O)c2ccc(NC(=O)c3ccc(CN4CCc5ccccc5C4)cc3)cc2)CC1` [compound 144]: the IC50 in assay [1] and in assay [2] (setting [3]) was below 5 µM throughout.
Regarding `Cc1ccccc1C(=O)N1CCc2cc(-c3nc(NC(=O)Cc4ccc(OCCOCCOCCNC(=O)OC(C)(C)C)cc4)sc3C)ccc21` [Compound 236, tert-butyl (2-(2-(2-(4-(2-((5-methyl-4-(1-(2-methylbenzoyl)indolin-5-yl)thiazol-2-yl)amino)-2-oxoethyl)phenoxy)ethoxy)ethoxy)ethyl)carbamate], the IC50 in assay [1] and in assay [2] (setting [3]) was below 5 µM throughout.
Regarding `O=C(Nc1ncc(Cc2ccc(C(F)(F)F)cc2)s1)c1c[nH]c(-c2ccccc2)n1` [Compound 118], the IC50 in assay [1] is 5 to 25 µM; in assay [2] (setting [3]) it was above 25 µM.
In the case of `Cc1ccccc1C(=O)N1CCc2cc(-c3nc(NC(=O)Cc4ccc5ccccc5c4)sc3C)ccc21` [Compound 9], the IC50 is below 5 µM in assay [1] and 5 to 25 µM in assay [2] (setting [3]).
Take `O=C(Nc1ncc(Cc2ccc(F)cc2)s1)c1ccn(-c2ccccc2)n1` [Compound 222]: the IC50 in assay [1] and in assay [2] (setting [3]) was below 5 µM in each case.
Turning to `O=C(Nc1nc(Cc2ccccc2)cs1)c1ccc(-c2cccc([N+](=O)[O-])c2)o1` [Compound 85], the results for the IC50 in assay [1] and in assay [2] (setting [3]) were 5 to 25 µM and above 25 µM, respectively.
For the molecule `Cc1ccccc1C(=O)N1CCc2cc(-c3ccc(NC(=O)Cc4ccccc4)cn3)ccc21` [Compound 101], the IC50 in assay [1] and in assay [2] (setting [3]) was 5 to 25 µM in each case.
Take `Cc1ccsc1C(=O)N1CCc2cc(-c3nc(NC(=O)Cc4ccc5c(c4)OCO5)sc3C)ccc21` [Compound 182]: the IC50 in assay [1] and in assay [2] (setting [3]) was below 5 µM in each case.
